Assay [1] has as its system human cervical tumor cell line HeLa (ATCC CCL-2). In words: SAC-Formation - Nocodazole-Induced Assay. Type of assay: cell-based. The note with it: 24 h, HeLa cells, nocodazole 0.1 μg/ml together with test compound, decrease of mitotic cells (phospho-histone H3 Ser10). The method in brief: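 Loss of phospho-histone H3 Ser10-positive cells, counted against Hoechst-stained nuclei by high-content imaging, marked mitotic breakthrough. Compounds (0.005–20 μM, 0.5% DMSO) were co-dosed with 0.1 μg/ml nocodazole onto HeLa cells for 24 h at 37 °C. Curves were fitted with a four-parameter Hill equation.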

In assay [2] the target is T1, catalytic domain of human Bub1 (amino acids 704-1085) (Homo sapiens, UniProt O43683).
T1 construct: catalytic domain of human Bub1 (amino acids 704-1085); His6 (N); made in house; host or cells: insect cells (Hi5)
In words: Bub1 kinase assay (TR-FRET). It is filed as biochemical. Conditions: 10 μM ATP, avg, read-out: Bub1 avg (IC50 [mol/l]). From the text: Bub1-inhibitory activity of compounds of the present invention was quantified employing the Bub1 TR-FRET assay as described in the following paragraphs.
N-terminally His6-tagged recombinant catalytic domain of human Bub1 (amino acids 704-1085), expressed in insect cells (Hi5) and purified by Ni-NTA affinity chromatography and subsequent size exclusion chromatography, was used as enzyme. As substrate for the kinase reaction the biotinylated peptide biotin-Ahx-VLLPKKSFAEPG (C-terminus in amid form) was used which can be purchased e.g. form the company Biosyntan (Berlin, Germany).
For the assay 50 nl of a 100fold concentrated solution of the test compound in DMSO was pipetted into a black low volume 384well microtiter plate (Greiner Bio-One, Frickenhausen, Germany), 2 μl of a solution of Bub1 in aqueous assay buffer [50 mM Tris/HCl pH 7.5, 10 mM magnesium chloride (MgCl2), 200 mM potassium chloride (KCl), 1.0 mM dithiothreitol (DTT), 0.1 mM sodium ortho-vanadate, 1% (v/v) glycerol, 0.01% (w/v) bovine serum albumine (BSA), 0.005% (v/v) Trition X-100 (Sigma), 1× Complete EDTA-free protease inhibitor mixture (Roche)] were added and the mixture was incubated for 15 min at 22° C. to allow pre-binding of the test compounds to the enzyme before the start of the kinase reaction. Then the kinase reaction was started by the addition of 3 μl of a solution of adenosine-tri-phosphate (ATP, 16.7 μM=>final conc. in the 5 μl assay volume is 10 μM) and substrate (1.67 μM=>final conc. in the 5 μl assay volume is 1 μM) in assay buffer and the resulting mixture was incubated for a reaction time of 60 min at 22° C. The concentration of Bub1 was adjusted depending of the activity of the enzyme lot and was chosen appropriate to have the assay in the linear range, typical concentrations were in the range of 200 ng/ml. The reaction was stopped by the addition of 5 μl of a solution of TR-FRET detection reagents (0.2 μM streptavidine-XL665 [Cisbio Bioassays, Codolet, France] and 1 nM anti-phosho-Serine antibody [Merck Millipore, cat. #35-001] and 0.4 nM LANCE EU-W1024 labeled anti-mouse IgG antibody [Perkin-Elmer, product no. AD0077, as an alternative a Terbium-cryptate-labeled anti-mouse IgG antibody from Cisbio Bioassays can be used]) in an aqueous EDTA-solution (50 mM EDTA, 0.2% (w/v) bovine serum albumin in 100 mM HEPES pH 7.5).
The resulting mixture was incubated 1 h at 22° C. to allow the formation of complex between the phosphorylated biotinylated peptide and the detection reagents. Subsequently the amount of phosphorylated substrate was evaluated by measurement of the resonance energy transfer from the Eu-chelate to the streptavidine-XL. Therefore, the fluorescence emissions at 620 nm and 665 nm after excitation at 350 nm was measured in a TR-FRET reader, e.g. a Rubystar or Pherastar (both from BMG Labtechnologies, Offenburg, Germany) or a Viewlux (Perkin-Elmer). The ratio of the emissions at 665 nm and at […] was taken as the measure for the amount of phosphorylated substrate. The data were normalised (enzyme reaction without inhibitor=0% inhibition, all other assay components but no enzyme=100% inhibition).
(In TR-FRET formats the signal depends on donor and acceptor labels being close together.)

pIC50: −log10 of the molar value.

T1 sequence (O43683 704-1085): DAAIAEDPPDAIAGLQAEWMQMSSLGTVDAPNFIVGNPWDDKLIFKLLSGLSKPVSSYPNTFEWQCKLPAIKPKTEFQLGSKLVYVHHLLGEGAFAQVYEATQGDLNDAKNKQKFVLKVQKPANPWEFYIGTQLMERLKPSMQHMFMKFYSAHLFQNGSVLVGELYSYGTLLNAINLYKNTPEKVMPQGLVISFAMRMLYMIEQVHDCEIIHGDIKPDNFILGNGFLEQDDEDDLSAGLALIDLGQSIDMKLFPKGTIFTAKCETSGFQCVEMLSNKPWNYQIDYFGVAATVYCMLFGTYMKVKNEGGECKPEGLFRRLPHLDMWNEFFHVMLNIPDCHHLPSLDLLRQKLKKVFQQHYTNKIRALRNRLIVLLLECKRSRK

For the compound `Cc1nsc(Nc2cnc(C(F)(F)F)cn2)c1C(=O)Nc1ccc(OC[C@H]2CCN(CC(F)(F)F)C2)nc1` (racemic) [Example 133, 3-Methyl-N-(6-{[(SR)-1-(2,2,2-trifluoroethyl)pyrrolidin-3-yl]methoxy}pyridin-3-yl)-5-{[5-(trifluoromethyl)pyrazin-2-yl]amino}-1,2-thiazole-4-carboxamide], the pIC50 is 7.57 in assay [1] (Homo sapiens, HeLa) and less than 4.70 in assay [2].

With `Cc1nsc(Nc2cnc(C(F)(F)F)cn2)c1C(=O)Nc1ccc(OC2CCNCC2)nc1` [Example 6, 3-Methyl-N-[6-(piperidin-4-yloxy)pyridin-3-yl]-5-{[5-(trifluoromethyl)pyrazin-2-yl]amino}-1,2-thiazole-4-carboxamide], the pIC50 is 4.85 in assay [1] (Homo sapiens, HeLa) and not above 4.70 in assay [2].

Take `Cc1nsc(Nc2cnc(C(F)(F)F)cn2)c1C(=O)Nc1ccc(OC2CCN(CCF)CC2)nc1` [Example 7, N-(6-{[1-(2-Fluoroethyl)piperidin-4-yl]oxy}pyridin-3-yl)-3-methyl-5-{[5-(trifluoromethyl)pyrazin-2-yl]amino}-1,2-thiazole-4-carboxamide]: the pIC50 is 6.22 in assay [1] (Homo sapiens, HeLa) and not above 4.70 in assay [2].

`Cc1nsc(Nc2cnc(C(F)(F)F)cn2)c1C(=O)Nc1ccc(OC2CCN(CC(F)F)CC2)nc1` [Example 8, N-(6-{[1-(2,2-Difluoroethyl)piperidin-4-yl]oxy}pyridin-3-yl)-3-methyl-5-{[5-(trifluoromethyl)pyrazin-2-yl]amino}-1,2-thiazole-4-carboxamide]: the pIC50 is 5.82 in assay [1] (Homo sapiens, HeLa) and not above 4.70 in assay [2].

In the case of `Cc1nsc(Nc2cnc(C(F)(F)F)cn2)c1C(=O)Nc1ccc(OC2CCN(CC(F)(F)F)CC2)nc1` [Example 9, -Methyl-N-(6-{[1-(2,2,2-trifluoroethyl)piperidin-4-yl]oxy}pyridin-3-yl)-5-{[5-(trifluoromethyl)pyrazin-2-yl]amino}-1,2-thiazole-4-carboxamide], the pIC50 is 6.66 in assay [1] (Homo sapiens, HeLa) and not above 4.70 in assay [2].

In the case of `Cc1nsc(Nc2cnc(C(F)(F)F)cn2)c1C(=O)Nc1ccc(OC2CCN(CCC(F)(F)F)CC2)nc1` [Example 10, 3-Methyl-5-{[5-(trifluoromethyl)pyrazin-2-yl]amino}-N-(6-{[1-(3,3,3-trifluoropropyl)-piperidin-4-yl]oxy}pyridin-3-yl)-1,2-thiazole-4-carboxamide], the pIC50 is 6.59 in assay [1] and not above 4.70 in assay [2].

On to `CC(=O)N1CCC(Oc2ccc(NC(=O)c3c(C)nsc3Nc3cnc(C(F)(F)F)cn3)cn2)CC1` [Example 11, N-{6-[(1-Acetylpiperidin-4-yl)oxy]pyridin-3-yl}-3-methyl-5-{[5-(trifluoromethyl)-pyrazin-2-yl]amino}-1,2-thiazole-4-carboxamide], for which the pIC50 in assay [1] (Homo sapiens, HeLa) was 6.00; in assay [2], not above 4.70.

`Cc1nsc(Nc2cncc(C(F)(F)F)n2)c1C(=O)Nc1ccc(OC2CCN(C(=O)OC(C)(C)C)CC2)nc1` [Example 12, tert-Butyl 4-[(5-{[(3-methyl-5-{[6-(trifluoromethyl)pyrazin-2-yl]amino}-1,2-thiazol-4-yl)carbonyl]amino}pyridin-2-yl)oxy]piperidine-1-carboxylate]: the pIC50 in assay [1] (Homo sapiens, HeLa) was 6.66; in assay [2], not above 4.70.

For the compound `Cc1nsc(Nc2cnc(C(F)(F)F)cn2)c1C(=O)Nc1ccc(C(=O)OC(C)(C)C)cc1` [Example 96, tert-Butyl 4-{[(3-methyl-5-{[5-(trifluoromethyl)pyrazin-2-yl]amino}-1,2-thiazol-4-yl)carbonyl]amino}benzoate], the pIC50 in assay [1] (Homo sapiens, HeLa) was 8.74; in assay [2], not above 4.70.

On to `Cc1nsc(Nc2cnc(C(F)(F)F)cn2)c1C(=O)Nc1ccc(C(=O)O)cc1` [Example 97, 4-{[(3-Methyl-5-{[5-(trifluoromethyl)pyrazin-2-yl]amino}-1,2-thiazol-4-yl)carbony]-amino}benzoic acid], for which the pIC50 in assay [1] (Homo sapiens, HeLa) is 7.62; in assay [2], 5.54.
